In PMC8610590 (Journal of Virology, 2021):
Read-outs that look alike come from different tables or passages of the source.

Tests used:
SARS-CoV-2 = type: cell-based
[1] = target: ACE2: SARS-CoV-2 Spike RBD (UniProt P0DTC2+Q9BYF1); assay: ACE2: SARS-CoV-2 Spike RBD inhibitor screening assay; type: binding, human ACE2 / SARS-CoV-2
[2] = tested on: pseudotyped lentiviral particles expressing Spike glycoprotein of SARS-CoV-2; assay: microbe, parasite or virus in culture; type: cell-based
[3] = tested on: SARS-CoV-2 isolate USA-WI1/2020; assay: microbe, parasite or virus in culture; type: cell-based
[4] = tested on: SARS-CoV-2 isolate USA-WI1/2020; assay: Antiviral activity against live SARS-CoV-2 in UNCN1T cells; type: cell-based; settings: for antiviral efficacy against live SARS-CoV-2 (in words): UNCN1T cells, compared to DMSO vehicle control, data not shown
[5] = MTT cell viability assay, Vero-STAT1 knockout; type: cell-based; settings: African green monkey
[6] = tested on: SARS-CoV-2 isolate USA-WI1/2020; type: cell-based
[7] = Severe acute respiratory syndrome coronavirus 2, read-out: IC50, inhibition of SARS-CoV-2 replication
[8] = read-out: IC50, inhibition of SARS-CoV-2 replication

SMILES	SARS-CoV-2 infection compared with vehicle controls (in words) (SARS-CoV-2)	IC50 [1]	pseudotype viral entry inhibition (in words) [2]	CC50 at 72 h [5]	antiviral efficacy against live SARS-CoV-2 (in words) [4]	other results
CN1C(=O)c2ccccc2[S+]([O-])c2cc([N+](=O)[O-])ccc2S1(=O)=O (stereo not drawn) [MU-UNMC-1, 6-methyl-2-nitrodibenzo[d,g][1,6,2]dithiazocin-7(6H)-one 5,5,12-trioxide]	no significant difference	< 250 nM	low level of viral entry inhibition with a slight increase at higher concentrations	6210 nM		IC50 [3, 7]: 5350 nM; IC50 [3, 8]: 2940 nM; IC50 [4, 7]: 670 nM; IC50 [4, 8]: 1160 nM
O=C1Nc2cc(C(F)(F)F)ccc2Oc2ccsc21 [MU-UNMC-2, 7-(trifluoromethyl) benzo[b]thieno[2,3-f][1,4]oxazepin-10(9H)-one]	no significant difference		significant and robust viral entry inhibition across a broad concentration range	7130 nM		IC50 ([2]; Severe acute respiratory syndrome coronavirus 2, 48 h, read-out: IC50, inhibition of entry of pseudotyped lentiviral particles): 840 nM; reduction in dosages in combination ([6]; RDV/MU-UNMC-2 combination, human bronchial epithelial cell line): 28.3 fold
CCn1c(SCC(=O)N2CCCc3ccccc32)nnc1-c1cccs1 [MU-UNMC-6, 1-(3,4-dihydroquinolin-1(2H)-yl)-2-((4-ethyl-5-(thiophen-2-yl)-4H-1,2,4-triazol-3-yl)thio) ethanone]		1910 nM	failed to prevent the pseudovirus entry		did not see any reduction in viral replication kinetics	
OC(CNCCNc1ncccc1C(F)(F)F)Cn1ccc2ccccc21 (stereo not drawn) [MU-UNMC-7, 1-(1H-indol-1-yl)-3-((2-((3-(trifluoromethyl)pyridin-2-yl)amino)ethyl)amino)propan-2-ol]		> 5000 nM	failed to prevent the pseudovirus entry		did not see any reduction in viral replication kinetics	
CN(C)/C=C1\N=C(c2cccnc2Oc2ccc(Cl)cc2)OC1=O [MU-UNMC-8, (Z)-2-(2-(4-chlorophenoxy)pyridin-3-yl)-4-((dimethylamino)methylene)oxazol-5(4H)-one]		> 5000 nM	failed to prevent the pseudovirus entry		did not see any reduction in viral replication kinetics	
CCC(CC)COC(=O)[C@H](C)N[P@](=O)(OC[C@H]1O[C@@](C#N)(c2ccc3c(N)ncnn23)[C@H](O)[C@@H]1O)Oc1ccccc1 [RDV, remdesivir]						reduction in dosages in combination [6]: 2.3 fold; dose reduction index (DRI) ([6]; RDV/MU-UNMC-2 combination, UNCN1T cells, CompuSyn): 2.33
